Marks after values point to notes of the source that are not given here.
Experiment: Phase I multiple ascending-dose study: safety and tolerability (treatment-emergent adverse events)
Type: in vivo, human (healthy volunteers)
Method: A single-center, randomized, double-blind, placebo-controlled phase I study (NCT03554993) with a MAD component was performed in the UK between May 2018 and July 2019. Thirty-seven healthy volunteers of any race, ethnicity, or sex were enrolled. The inclusion criteria were 18 to 55 years of age inclusive, body mass index 18 to 33 kg/m^2, and physical examination by the investigator without clinically significant findings. Subjects were excluded if any clinically significant medical history, laboratory abnormality, psychiatric illness, or other condition existed that would place the subject at unacceptable risk by participating in the study. Pregnancy prevention guidance was provided as per Clinical Trial Facilitation Group recommendations. Subjects were randomly assigned to daily oral doses of CC-99677 or placebo. Subjects were dosed daily for 14 days. […] Both the investigator and subjects were blinded to the treatment arm. Safety assessments, including physical examinations, clinical laboratory tests, and collection of adverse events (AEs) were performed and graded using MedDRA version 22.0 and the US Food and Drug Administration (FDA) Toxicity Grading Scale for Healthy Adult and Adolescent Volunteers. The primary outcome of this trial was the safety and tolerability of multiple daily doses of CC-99677.

For CCOCc1cnc(Cl)nc1Oc1ccc2c(ccc3sc4c(c32)NC[C@@H](C)NC4=O)n1 [CC-99677], the “TEAE: Investigations” value (60 mg daily, 14 days (n = 6)) was 0 n (%), the “TEAE: Muscle strain” value (60 mg daily, 14 days (n = 6)) was 0 n (%) and the “TEAE: Musculoskeletal and connective tissue disorders” value (60 mg daily, 14 days (n = 6)) was 0 n (%). For the same molecule, the “TEAE: Musculoskeletal pain” value (60 mg daily, 14 days (n = 6)) was 0 n (%), the “TEAE: Myalgia” value (60 mg daily, 14 days (n = 6)) was 0 n (%) and the “TEAE: Nasopharyngitis” value (60 mg daily, 14 days (n = 6)) was 0 n (%). For the same molecule, the “TEAE: Nausea” value (60 mg daily, 14 days (n = 6)) was 0 n (%), the “TEAE: Nervous system disorders” value (60 mg daily, 14 days (n = 6)) was 1 (16.7) n (%) and the “TEAE: Oropharyngeal pain” value (60 mg daily, 14 days (n = 6)) was 0 n (%). For the same molecule, the “TEAE: Psychiatric disorders” value (60 mg daily, 14 days (n = 6)) was 0 n (%), the “TEAE: Rash pustular” value (60 mg daily, 14 days (n = 6)) was 0 n (%) and the “TEAE: Rectal hemorrhage” value (60 mg daily, 14 days (n = 6)) was 0 n (%). The “TEAE: Reproductive system and breast disorders” value (60 mg daily, 14 days (n = 6)) was 0 n (%), the “TEAE: Respiratory, thoracic, and mediastinal disorders” value (“TEAE: Respiratory, thoracic” for short) (60 mg daily, 14 days (n = 6)) was 0 n (%) and the “TEAE: Sensation of foreign body” value (60 mg daily, 14 days (n = 6)) was 0 n (%). The “TEAE: Vascular disorders” value (60 mg daily, 14 days (n = 6)) was 0 n (%), the “TEAE: Vessel puncture site pain” value (60 mg daily, 14 days (n = 6)) was 0 n (%) and the “TEAE: Vessel puncture site reaction” value (60 mg daily, 14 days (n = 6)) was 0 n (%). The “Subjects with ≥ 1 treatment-emergent AE” value (120 mg daily, 14 days (n = 6)) was 3 (50.0) n (%), the “TEAE: Abdominal pain” value (120 mg daily, 14 days (n = 6)) was 1 (16.7) n (%) and the “TEAE: Alanine aminotransferase increased” value (120 mg daily, 14 days (n = 6)) was 1 (16.7) n (%). The “TEAE: Aspartate aminotransferase increased” value (120 mg daily, 14 days (n = 6)) was 0 n (%), the “TEAE: Back pain” value (120 mg daily, 14 days (n = 6)) was 0 n (%) and the “TEAE: Blood creatine phosphokinase increased” value (120 mg daily, 14 days (n = 6)) was 0 n (%). For the same molecule, the “TEAE: Catheter site related reaction” value (120 mg daily, 14 days (n = 6)) was 0 n (%), the “TEAE: Chapped lips” value (120 mg daily, 14 days (n = 6)) was 0 n (%) and the “TEAE: Constipation” value (120 mg daily, 14 days (n = 6)) was 0 n (%). The “TEAE: Diarrhea” value (120 mg daily, 14 days (n = 6)) was 1 (16.7) n (%), the “TEAE: Dizziness” value (120 mg daily, 14 days (n = 6)) was 0 n (%) and the “TEAE: Dysmenorrhea” value (120 mg daily, 14 days (n = 6)) was 0 n (%). The “TEAE: Dyspepsia” value (120 mg daily, 14 days (n = 6)) was 0 n (%), the “TEAE: Ear and labyrinth disorders” value (120 mg daily, 14 days (n = 6)) was 0 n (%) and the “TEAE: Ear pain” value (120 mg daily, 14 days (n = 6)) was 0 n (%). For the same molecule, the “TEAE: Flushing” value (120 mg daily, 14 days (n = 6)) was 0 n (%), the “TEAE: Gastrointestinal disorders” value (120 mg daily, 14 days (n = 6)) was 1 (16.7) n (%) and the “TEAE: General disorders and administration site conditions” value (120 mg daily, 14 days (n = 6)) was 0 n (%). For the same molecule, the “TEAE: Headache” value (120 mg daily, 14 days (n = 6)) was 1 (16.7) n (%), the “TEAE: Hot flush” value (120 mg daily, 14 days (n = 6)) was 0 n (%) and the “TEAE: Infections and infestations” value (120 mg daily, 14 days (n = 6)) was 0 n (%). For the same molecule, the “TEAE: Injury, poisoning, and procedural complications” value (120 mg daily, 14 days (n = 6)) was 0 n (%), the “TEAE: Insomnia” value (120 mg daily, 14 days (n = 6)) was 0 n (%) and the “TEAE: Investigations” value (120 mg daily, 14 days (n = 6)) was 1 (16.7) n (%). The “TEAE: Muscle strain” value (120 mg daily, 14 days (n = 6)) was 0 n (%), the “TEAE: Musculoskeletal and connective tissue disorders” value (120 mg daily, 14 days (n = 6)) was 1 (16.7) n (%) and the “TEAE: Musculoskeletal pain” value (120 mg daily, 14 days (n = 6)) was 1 (16.7) n (%). The “TEAE: Myalgia” value (120 mg daily, 14 days (n = 6)) was 0 n (%), the “TEAE: Nasopharyngitis” value (120 mg daily, 14 days (n = 6)) was 0 n (%) and the “TEAE: Nausea” value (120 mg daily, 14 days (n = 6)) was 0 n (%). For the same molecule, the “TEAE: Nervous system disorders” value (120 mg daily, 14 days (n = 6)) was 1 (16.7) n (%), the “TEAE: Oropharyngeal pain” value (120 mg daily, 14 days (n = 6)) was 1 (16.7) n (%) and the “TEAE: Psychiatric disorders” value (120 mg daily, 14 days (n = 6)) was 0 n (%). For the same molecule, the “TEAE: Rash pustular” value (120 mg daily, 14 days (n = 6)) was 0 n (%), the “TEAE: Rectal hemorrhage” value (120 mg daily, 14 days (n = 6)) was 0 n (%) and the “TEAE: Reproductive system and breast disorders” value (120 mg daily, 14 days (n = 6)) was 0 n (%). The “TEAE: Respiratory, thoracic” value (120 mg daily, 14 days (n = 6)) was 1 (16.7) n (%), the “TEAE: Sensation of foreign body” value (120 mg daily, 14 days (n = 6)) was 0 n (%) and the “TEAE: Vascular disorders” value (120 mg daily, 14 days (n = 6)) was 0 n (%). For the same molecule, the “TEAE: Vessel puncture site pain” value (120 mg daily, 14 days (n = 6)) was 0 n (%), the “TEAE: Vessel puncture site reaction” value (120 mg daily, 14 days (n = 6)) was 0 n (%) and the “Subjects with ≥ 1 treatment-emergent AE” value (150 mg daily, 14 days (n = 5)) was 2 (40.0) n (%). For the same molecule, the “TEAE: Abdominal pain” value (150 mg daily, 14 days (n = 5)) was 0 n (%), the “TEAE: Alanine aminotransferase increased” value (150 mg daily, 14 days (n = 5)) was 0 n (%) and the “TEAE: Back pain” value (150 mg daily, 14 days (n = 5)) was 0 n (%). The “TEAE: Catheter site related reaction” value (150 mg daily, 14 days (n = 5)) was 0 n (%), the “TEAE: Chapped lips” value (150 mg daily, 14 days (n = 5)) was 0 n (%) and the “TEAE: Constipation” value (150 mg daily, 14 days (n = 5)) was 0 n (%). The “TEAE: Diarrhea” value (150 mg daily, 14 days (n = 5)) was 0 n (%), the “TEAE: Dizziness” value (150 mg daily, 14 days (n = 5)) was 0 n (%) and the “TEAE: Dysmenorrhea” value (150 mg daily, 14 days (n = 5)) was 1 (20.0) n (%). The “TEAE: Dyspepsia” value (150 mg daily, 14 days (n = 5)) was 0 n (%), the “TEAE: Ear and labyrinth disorders” value (150 mg daily, 14 days (n = 5)) was 0 n (%) and the “TEAE: Ear pain” value (150 mg daily, 14 days (n = 5)) was 0 n (%). The “TEAE: Flushing” value (150 mg daily, 14 days (n = 5)) was 1 (20.0) n (%), the “TEAE: Gastrointestinal disorders” value (150 mg daily, 14 days (n = 5)) was 0 n (%) and the “TEAE: General disorders and administration site conditions” value (150 mg daily, 14 days (n = 5)) was 0 n (%). The “TEAE: Headache” value (150 mg daily, 14 days (n = 5)) was 0 n (%), the “TEAE: Hot flush” value (150 mg daily, 14 days (n = 5)) was 0 n (%) and the “TEAE: Infections and infestations” value (150 mg daily, 14 days (n = 5)) was 0 n (%). The “TEAE: Injury, poisoning, and procedural complications” value (150 mg daily, 14 days (n = 5)) was 0 n (%), the “TEAE: Insomnia” value (150 mg daily, 14 days (n = 5)) was 0 n (%) and the “TEAE: Investigations” value (150 mg daily, 14 days (n = 5)) was 1 (20.0) n (%). The “TEAE: Muscle strain” value (150 mg daily, 14 days (n = 5)) was 0 n (%), the “TEAE: Musculoskeletal and connective tissue disorders” value (150 mg daily, 14 days (n = 5)) was 0 n (%) and the “TEAE: Musculoskeletal pain” value (150 mg daily, 14 days (n = 5)) was 0 n (%). The “TEAE: Myalgia” value (150 mg daily, 14 days (n = 5)) was 0 n (%), the “TEAE: Nasopharyngitis” value (150 mg daily, 14 days (n = 5)) was 0 n (%) and the “TEAE: Nausea” value (150 mg daily, 14 days (n = 5)) was 0 n (%). The “TEAE: Nervous system disorders” value (150 mg daily, 14 days (n = 5)) was 0 n (%), the “TEAE: Oropharyngeal pain” value (150 mg daily, 14 days (n = 5)) was 0 n (%) and the “TEAE: Psychiatric disorders” value (150 mg daily, 14 days (n = 5)) was 0 n (%). The “TEAE: Rash pustular” value (150 mg daily, 14 days (n = 5)) was 0 n (%), the “TEAE: Rectal hemorrhage” value (150 mg daily, 14 days (n = 5)) was 0 n (%) and the “TEAE: Reproductive system and breast disorders” value (150 mg daily, 14 days (n = 5)) was 1 (20.0) n (%). The “TEAE: Respiratory, thoracic” value (150 mg daily, 14 days (n = 5)) was 0 n (%), the “TEAE: Sensation of foreign body” value (150 mg daily, 14 days (n = 5)) was 0 n (%) and the “TEAE: Vascular disorders” value (150 mg daily, 14 days (n = 5)) was 1 (20.0) n (%). For the same molecule, the “TEAE: Vessel puncture site pain” value (150 mg daily, 14 days (n = 5)) was 0 n (%), the “TEAE: Vessel puncture site reaction” value (150 mg daily, 14 days (n = 5)) was 0 n (%) and the “TEAE: Blood creatine phosphokinase increased” value (150 mg daily, 14 days (n = 5), occurred 14 days after the end of dosing following greater-than-usual physical activity, same individual as AST increase) was 1 (20.0)^a n (%). For the same molecule, the “TEAE: Aspartate aminotransferase increased” value (150 mg daily, 14 days (n = 5), occurred 14 days after the end of dosing following greater-than-usual physical activity, same individual as CPK increase) was 1 (20.0)^a n (%), the “Dose dependency of the incidence of TEAEs” value (10 to 150 mg) was “no apparent CC-99677 dose dependency” and the “Serious treatment-emergent adverse events” value (14 consecutive days of dosing, 5 dose-level cohorts 10 to 150 mg) was “no serious treatment-emergent adverse events (TEAEs) were observed”. The “AEs not suspected to be related to CC-99677 (blinded investigator assessment)” value (MAD study) was 69%, the “Discontinuation because of safety reasons” value (MAD study) was “No subject discontinued” and the “Severity grade of TEAEs (FDA toxicity grading scale)” value (MAD study, 10 to 150 mg daily, 14 days) was “mild (grade 1)”. For the same molecule, the “Subjects with TEAEs” value (all subjects receiving CC-99677 (n = 28), placebo 77.8%) was 46.4%.

From PMC9386913 (Arthritis Research & Therapy, 2022)
